Test results: patent US11427549B2, “Pyrimidinyloxy benzo-fused compounds as herbicides” (FMC Corporation, priority 2017, dated 2022)

Tests used:
[1] = test system: barnyardgrass (Echinochloa crus-galli); assay: Test B flooded paddy test, barnyardgrass; settings: Echinochloa crus-galli, read-out: Plant response rating, Barnyardgrass (0 to 100 scale, 0 is no effect, 100 is complete control)
[2] = test system: ryegrass, Italian (Italian ryegrass, Lolium multiflorum); assay: Test A preemergence, ryegrass, Italian; assay type: in vivo; settings: Lolium multiflorum, pre-emergence, 240 h, 0 to 100 scale (0 no effect, 100 complete control), read-out: Plant response rating, Ryegrass, Italian; for pest or weed control at 31 g/ha: 31 g ai/ha; for pest or weed control at 125 g/ha: 125 g ai/ha
[3] = test system: rice (Oryza sativa); assay: Test B flooded paddy test, rice; settings: Oryza sativa, read-out: Plant response rating, Rice (0 to 100 scale, 0 is no effect, 100 is complete control)
[4] = test system: barnyardgrass (Echinochloa crus-galli); assay: Test A preemergence, barnyardgrass; assay type: in vivo; settings: Echinochloa crus-galli, pre-emergence, 240 h, 0 to 100 scale (0 no effect, 100 complete control), read-out: Plant response rating, Barnyardgrass; for pest or weed control at 31 g/ha: 31 g ai/ha; for pest or weed control at 125 g/ha: 125 g ai/ha
[5] = test system: kochia (Kochia scoparia); assay: Test A preemergence, kochia; assay type: in vivo; settings: Bassia scoparia, pre-emergence, 240 h, 0 to 100 scale (0 no effect, 100 complete control), read-out: Plant response rating, Kochia; for pest or weed control at 31 g/ha: 31 g ai/ha; for pest or weed control at 125 g/ha: 125 g ai/ha
[6] = test system: pigweed (Amaranthus retroflexus); assay: Test A preemergence, pigweed; assay type: in vivo; settings: Amaranthus retroflexus, pre-emergence, 240 h, 0 to 100 scale (0 no effect, 100 complete control), read-out: Plant response rating, Pigweed; for pest or weed control at 31 g/ha: 31 g ai/ha; for pest or weed control at 125 g/ha: 125 g ai/ha
[7] = test system: kochia (Kochia scoparia); assay: Test A postemergence, kochia; assay type: in vivo; settings: Bassia scoparia, post-emergence, 240 h, 0 to 100 scale (0 no effect, 100 complete control), read-out: Plant response rating, Kochia; for pest or weed control at 31 g/ha: 31 g ai/ha; for pest or weed control at 125 g/ha: 125 g ai/ha
[8] = test system: ryegrass, Italian (Italian ryegrass, Lolium multiflorum); assay: Test A postemergence, ryegrass, Italian; assay type: in vivo; settings: Lolium multiflorum, post-emergence, 240 h, 0 to 100 scale (0 no effect, 100 complete control), read-out: Plant response rating, Ryegrass, Italian; for pest or weed control at 31 g/ha: 31 g ai/ha; for pest or weed control at 125 g/ha: 125 g ai/ha
[9] = test system: blackgrass (Alopecurus myosuroides); assay: Test A postemergence, blackgrass; assay type: in vivo; settings: Alopecurus myosuroides, post-emergence, 240 h, 0 to 100 scale (0 no effect, 100 complete control), read-out: Plant response rating, Blackgrass; for pest or weed control at 31 g/ha: 31 g ai/ha; for pest or weed control at 125 g/ha: 125 g ai/ha
[10] = test system: corn (Zea mays); assay: Test A postemergence, corn; assay type: in vivo; settings: Zea mays, post-emergence, 240 h, 0 to 100 scale (0 no effect, 100 complete control); for Corn plant response rating (crop injury, 0 = no effect, 100 = complete kill) at 31 g/ha: 31 g ai/ha; for Corn plant response rating (crop injury, 0 = no effect, 100 = complete kill) at 125 g/ha: 125 g ai/ha
[11] = test system: galium (catchweed bedstraw, Galium aparine); assay: Test A postemergence, galium; assay type: in vivo; settings: Galium, post-emergence, 240 h, 0 to 100 scale (0 no effect, 100 complete control), read-out: Plant response rating, Galium; for pest or weed control at 31 g/ha: 31 g ai/ha; for pest or weed control at 125 g/ha: 125 g ai/ha
[12] = test system: ragweed (common ragweed, Ambrosia elatior); assay: Test A postemergence, ragweed; assay type: in vivo; settings: Ambrosia artemisiifolia, post-emergence, 240 h, 0 to 100 scale (0 no effect, 100 complete control), read-out: Plant response rating, Ragweed; for pest or weed control at 31 g/ha: 31 g ai/ha; for pest or weed control at 125 g/ha: 125 g ai/ha
[13] = test system: ducksalad (Heteranthera limosa); assay: Test B flooded paddy test, ducksalad; settings: Heteranthera limosa, read-out: Plant response rating, Ducksalad (0 to 100 scale, 0 is no effect, 100 is complete control)
[14] = test system: ragweed (common ragweed, Ambrosia elatior); assay: Test A preemergence, ragweed; assay type: in vivo; settings: Ambrosia artemisiifolia, pre-emergence, 240 h, 0 to 100 scale (0 no effect, 100 complete control), read-out: Plant response rating, Ragweed; for pest or weed control at 31 g/ha: 31 g ai/ha; for pest or weed control at 125 g/ha: 125 g ai/ha
[15] = test system: pigweed (Amaranthus retroflexus); assay: Test A postemergence, pigweed; assay type: in vivo; settings: Amaranthus retroflexus, post-emergence, 240 h, 0 to 100 scale (0 no effect, 100 complete control), read-out: Plant response rating, Pigweed; for pest or weed control at 31 g/ha: 31 g ai/ha; for pest or weed control at 125 g/ha: 125 g ai/ha
[16] = test system: barnyardgrass (Echinochloa crus-galli); assay: Test A postemergence, barnyardgrass; assay type: in vivo; settings: Echinochloa crus-galli, post-emergence, 240 h, 0 to 100 scale (0 no effect, 100 complete control), read-out: Plant response rating, Barnyardgrass; for pest or weed control at 31 g/ha: 31 g ai/ha; for pest or weed control at 125 g/ha: 125 g ai/ha
[17] = test system: wheat (Triticum aestivum); assay: Test A postemergence, wheat; assay type: in vivo; settings: Triticum aestivum, post-emergence, 240 h, 0 to 100 scale (0 no effect, 100 complete control), read-out: Plant response rating, Wheat; for plant injury at 31 g/ha: 31 g ai/ha; for plant injury at 125 g/ha: 125 g ai/ha

Row | Structure (SMILES) | pest or weed control at 250 g/ha [1] [%] | pest or weed control at 31 g/ha [2] [%] | pest or weed control at 125 g/ha [2] [%] | plant injury at 250 g/ha [3] [%] | pest or weed control at 31 g/ha [4] [%] | pest or weed control at 125 g/ha [4] [%] | pest or weed control at 31 g/ha [5] [%] | pest or weed control at 125 g/ha [5] [%] | pest or weed control at 31 g/ha [6] [%] | pest or weed control at 125 g/ha [6] [%] | pest or weed control at 31 g/ha [7] [%] | pest or weed control at 125 g/ha [7] [%] | pest or weed control at 31 g/ha [8] [%] | pest or weed control at 125 g/ha [8] [%] | pest or weed control at 31 g/ha [9] [%] | pest or weed control at 125 g/ha [9] [%] | Corn plant response rating (crop injury, 0 = no effect, 100 = complete kill) at 31 g/ha [10] [%] | Corn plant response rating (crop injury, 0 = no effect, 100 = complete kill) at 125 g/ha [10] [%] | pest or weed control at 31 g/ha [11] [%] | pest or weed control at 125 g/ha [11] [%] | other results
1 | FC(F)(F)CCCC1OCCc2cccc(Oc3ncc(Cl)cn3)c21 (stereo not drawn) [Compound 27, 5-Chloro-2-[[3,4-dihydro-1-(4,4,4-trifluorobutyl)-1H-2-benzopyran-8-yl]oxy]pyrimidine] | 0 | 0 | 20 | 0 | 10 | 80 | 0 | 0 | 30 | 50 | 10 | 10 | 10 | 40 | 20 | 40 | 20 | 30 | 40 | 80 | pest or weed control at 31 g/ha [12]: 0%; pest or weed control at 125 g/ha [12]: 10%; pest or weed control at 250 g/ha [13]: 95%; pest or weed control at 31 g/ha [14]: 0%; pest or weed control at 125 g/ha [14]: 0%; pest or weed control at 31 g/ha [15]: 50%; pest or weed control at 125 g/ha [15]: 70%; pest or weed control at 31 g/ha [16]: 20%; pest or weed control at 125 g/ha [16]: 30%; plant injury at 31 g/ha [17]: 0%; plant injury at 125 g/ha [17]: 10%
2 | O=C1Cc2cccc(Oc3ncc(Cl)cn3)c2C(CCC(F)(F)F)O1 (stereo not drawn) [Compound 28, 8-[(5-Chloro-2-pyrimidinyl)oxy]-1,4-dihydro-1-(3,3,3-trifluoropropyl)-3H-2-benzopyran-3-one] | 0 | 0 | 10 | 0 | 0 | 60 | 0 | 50 | 10 | 100 | 20 | 70 | 0 | 0 | 10 | 60 | 10 | 20 | 20 | 60 | pest or weed control at 31 g/ha [12]: 10%; pest or weed control at 125 g/ha [12]: 20%; pest or weed control at 250 g/ha [13]: 0%; pest or weed control at 31 g/ha [14]: 0%; pest or weed control at 125 g/ha [14]: 0%; pest or weed control at 31 g/ha [15]: 30%; pest or weed control at 125 g/ha [15]: 70%; pest or weed control at 31 g/ha [16]: 0%; pest or weed control at 125 g/ha [16]: 10%; plant injury at 31 g/ha [17]: 0%; plant injury at 125 g/ha [17]: 0%
3 | O=C1OCc2cccc(Oc3ncc(Cl)cn3)c2C1CCC(F)(F)F (stereo not drawn) [Compound 29, 5-[(5-Chloro-2-pyrimidinyl)oxy]-1,4-dihydro-4-(3,3,3-trifluoropropyl)-3H-2-benzopyran-3-one] | 0 | 0 | 0 | 0 | 0 | 10 | 0 | 10 | 0 | 80 | 20 | 60 | 0 | 30 | 30 | 30 | 10 | 30 | 20 | 50 | pest or weed control at 31 g/ha [12]: 10%; pest or weed control at 125 g/ha [12]: 30%; pest or weed control at 250 g/ha [13]: 0%; pest or weed control at 31 g/ha [14]: 0%; pest or weed control at 125 g/ha [14]: 10%; pest or weed control at 31 g/ha [15]: 30%; pest or weed control at 125 g/ha [15]: 70%; pest or weed control at 31 g/ha [16]: 0%; pest or weed control at 125 g/ha [16]: 30%; plant injury at 31 g/ha [17]: 0%; plant injury at 125 g/ha [17]: 10%
